One assay has as its system HeLa-MaTu-ADR cells. The assay is described as follows: Proliferation assay, crystal violet (Method 3). The conditions noted are these: Homo sapiens, 96 h, 4 days, read-out: Inhibition of HeLa-MaTu-ADR cell proliferation IC50. It counts as cell-based. As for the experimental part: (§1) Cultivated tumour cells (HeLa, human cervical tumour cells, ATCC CCL-2; NCI-H460, human non-small cell lung carcinoma cells, ATCC HTB-177; DU 145, hormone-independent human prostate carcinoma cells, ATCC HTB-81; HeLa-MaTu-ADR, multidrug-resistant human cervical carcinoma cells, EPO-GmbH Berlin; Caco-2, human colorectal carcinoma cells, ATCC HTB-37; B16F10, mouse melanoma cells, ATCC CRL-6475) were plated at a density of 5,000 cells/well (DU145, HeLa-MaTu-ADR), 3,000 cells/well (NCI-H460, HeLa), 1,500 cells/well (Caco-2), or 1,000 cells/well (B16F10) in a 96-well multititer plate in 200 μL of their respective growth medium supplemented 10% fetal calf serum. After 24 hours, the cells of one plate (zero-point plate) were stained with crystal violet (see below), while the medium of the other plates was supplemented with the test substances in various concentrations (0 μM, as well as in the range of 0.0001-10 μM; the final concentration of the solvent dimethyl sulfoxide was adjusted to 0.1%) using a Hewlett-Packard HP D300 Digital Dispenser. The cells were incubated for 4 days in the presence of test substances. Cell proliferation was determined by staining the cells with crystal violet: the cells were fixed by adding 20 μl/measuring point of an 11% glutaric aldehyde solution for 15 minutes at room temperature. After three washing cycles of the fixed cells with water, the plates were dried at room temperature. The cells were stained by adding 100 μl/measuring point of a 0.1% crystal violet solution (pH 3.0). After three washing cycles of the stained cells with water, the plates were dried at room temperature. The dye was dissolved by adding 100 μl/measuring point of a 10% acetic acid solution. The extinction was determined by photometry at a wavelength of 595 nm. The change of cell number, in percent, was calculated by normalization of the measured values to the extinction values of the zero-point plate (=0%) and the extinction of the untreated (0 μm) cells (=100%). The IC50 values (inhibitory concentration at 50% of maximal effect) were determined by means of a 4 parameter fit.

The next assay relates to NCI-H460 cells. The assay is described as follows: Proliferation assay, crystal violet (Method 3). Type of assay: cell-based. The conditions noted are these: Homo sapiens, 96 h; NCI-H460, 4 days; read-out: Inhibition of NCI-H460 cell proliferation IC50. Here is the method:
as §1

The next assay has as its system Caco-2 cells. The assay is described as follows: Proliferation assay, crystal violet (Method 3). It counts as cell-based. The conditions noted are these: Homo sapiens, 96 h; Caco-2, 4 days; read-out: Inhibition of Caco-2 cell proliferation IC50. Here is the method: as §1
The subject of another assay is B16F10 cells. Put plainly: Proliferation assay, crystal violet (Method 3). Type of assay: cell-based. The conditions noted are these: Mus musculus, B16-F10, 96 h; B16F10, 4 days; read-out: Inhibition of B16F10 cell proliferation IC50. Here is the method:
as §1

The next assay deals with DU145 cells. Put plainly: Proliferation assay, crystal violet (Method 3). It counts as cell-based. The conditions noted are these: Homo sapiens, DU-145, 96 h; DU145, 4 days; read-out: Inhibition of DU145 cell proliferation IC50. As for the experimental part:
as §1

A further assay deals with HeLa cells. Put plainly: Proliferation assay, crystal violet (Method 3). Type of assay: cell-based, human. The conditions noted are these: 4 days, read-out: Inhibition of HeLa cell proliferation IC50. Here is the method:
as §1

In the next assay the target is T1, CDK9/CycT1 (Homo sapiens, UniProt P50750).
T1 construct: Recombinant full-length His-tagged human CDK9 and CycT1; His; purchased Invitrogen PV4131; host or cells: insect cells
T1 sequence (P50750 whole entry): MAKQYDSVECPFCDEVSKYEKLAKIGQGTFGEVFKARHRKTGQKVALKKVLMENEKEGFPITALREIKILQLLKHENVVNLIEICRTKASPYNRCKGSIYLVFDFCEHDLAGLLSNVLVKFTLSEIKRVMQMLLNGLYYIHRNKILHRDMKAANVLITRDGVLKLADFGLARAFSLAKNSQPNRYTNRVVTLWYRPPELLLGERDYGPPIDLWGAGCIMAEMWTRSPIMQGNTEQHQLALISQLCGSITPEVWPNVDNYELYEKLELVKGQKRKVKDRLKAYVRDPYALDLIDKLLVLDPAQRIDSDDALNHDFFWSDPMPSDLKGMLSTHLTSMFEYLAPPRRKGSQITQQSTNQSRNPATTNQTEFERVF
T1 sequence (O60563 whole entry partner): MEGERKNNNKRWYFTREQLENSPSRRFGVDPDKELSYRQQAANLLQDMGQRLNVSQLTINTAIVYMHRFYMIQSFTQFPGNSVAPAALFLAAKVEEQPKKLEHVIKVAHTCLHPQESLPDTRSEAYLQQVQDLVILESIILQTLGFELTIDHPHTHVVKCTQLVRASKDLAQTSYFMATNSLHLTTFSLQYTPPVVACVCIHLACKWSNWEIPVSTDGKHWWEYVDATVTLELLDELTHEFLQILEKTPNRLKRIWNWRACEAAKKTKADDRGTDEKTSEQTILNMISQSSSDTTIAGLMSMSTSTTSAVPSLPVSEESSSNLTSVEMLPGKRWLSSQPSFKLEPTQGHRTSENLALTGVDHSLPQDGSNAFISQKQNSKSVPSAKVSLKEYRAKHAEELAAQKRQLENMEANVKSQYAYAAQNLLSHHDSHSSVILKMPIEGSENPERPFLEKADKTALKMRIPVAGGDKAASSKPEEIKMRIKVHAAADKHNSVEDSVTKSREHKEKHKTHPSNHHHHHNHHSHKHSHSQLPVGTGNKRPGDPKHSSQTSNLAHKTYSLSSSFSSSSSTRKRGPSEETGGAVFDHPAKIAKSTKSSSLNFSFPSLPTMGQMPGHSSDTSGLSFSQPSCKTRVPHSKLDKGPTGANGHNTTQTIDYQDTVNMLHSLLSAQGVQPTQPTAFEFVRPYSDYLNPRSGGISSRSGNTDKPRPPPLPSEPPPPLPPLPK
Put plainly: CDK9/CycT1 kinase assay (TR-FRET, Method 1a). The conditions noted are these: 10 μM ATP; for IC50: Method 1a; for Selectivity CDK9 over CDK2: IC50 (CDK2)/IC50 (CDK9): Methods 1a and 2a. It counts as biochemical. An excerpt:
1a. CDK9/CycT1 Kinase Assay:
CDK9/CycT1-inhibitory activity of compounds of the present invention was quantified employing the CDK9/CycT1 TR-FRET assay as described in the following paragraphs:
Recombinant full-length His-tagged human CDK9 and CycT1, expressed in insect cells and purified by Ni-NTA affinity chromatography, were purchased from Invitrogen (Cat. No PV4131). As substrate for the kinase reaction biotinylated peptide biotin-Ttds-YISPLKSPYKISEG (C-terminus in amid form) was used which can be purchased e.g. from the company JERINI Peptide Technologies (Berlin, Germany).
For the assay 50 nl of a 100 fold concentrated solution of the test compound in DMSO was pipetted into a black low volume 384 well microtiter plate (Greiner Bio-One, Frickenhausen, Germany), 2 μl of a solution of CDK9/CycT1 in aqueous assay buffer [50 mM Tris/HCl pH 8.0, 10 mM MgCl2, 1.0 mM dithiothreitol, 0.1 mM sodium ortho-vanadate, 0.01% (v/v) Nonidet-P40 (Sigma)] were added and the mixture was incubated for 15 min at 22° C. to allow pre-binding of the test compounds to the enzyme before the start of the kinase reaction. […] The concentration of CDK9/CycT1 was adjusted depending of the activity of the enzyme lot and was chosen appropriate to have the assay in the linear range, typical concentrations were in the range of 1 μg/mL. The reaction was stopped by the addition of 5 μl of a solution of TR-FRET detection reagents (0.2 μM streptavidine-XL665 [Cisbio Bioassays, Codolet, France] and 1 nM anti-RB(pSer807/pSer811)-antibody from BD Pharmingen [#558389] and 1.2 nM LANCE EU-W1024 labeled anti-mouse IgG antibody [Perkin-Elmer, product no. AD0077]) in an aqueous EDTA-solution (100 mM EDTA, 0.2% (w/v) bovine serum albumin in 100 mM HEPES pH 7.5).
The resulting mixture was incubated 1 h at 22° C. to allow the formation of complex between the phosphorylated biotinylated peptide and the detection reagents. Subsequently the amount of phosphorylated substrate was evaluated by measurement of the resonance energy transfer from the Eu-chelate to the streptavidine-XL. Therefore, the fluorescence emissions at 620 nm and 665 nm after excitation at 350 nm was measured in a HTRF reader, e.g. a Rubystar (BMG Labtechnologies, Offenburg, Germany) or a Viewlux (Perkin-Elmer). The ratio of the emissions at 665 nm and at […] was taken as the measure for the amount of phosphorylated substrate. The data were normalised (enzyme reaction without inhibitor=0% inhibition, all other assay components but no enzym=100% inhibition).
(TR-FRET usually uses a lanthanide donor and a delayed reading to cut background.)

Results on 10 compounds are retold here after patent publication US10214542B2, “Modified macrocyclic compounds” (BAYER PHARMA AKTIENGESELLSCHAFT, priority 2015, dated 2019).

The structures appear in SMILES notation. Read-outs that look alike come from different tables or passages of the source.

Turning to `CS(=O)(Cc1cc2nc(c1)Nc1cc(c(F)cn1)-c1ccc(F)cc1OCCCCN2)=NC(=O)OCc1ccccc1` (racemic) [Example 2, (rac)-Benzyl[{[16,20-difluoro-3,4,5,6-tetrahydro-2H,12H-11,7-(azeno)-13,17-(metheno)-1,6,12,14-benzoxatriazacyclononadecin-9-yl]methyl}(methyl)oxido-λ^6-sulfanylidene]carbamate], the IC50 with HeLa-MaTu-ADR cells was 119 nM; in the assay on NCI-H460 cells it was 80 nM; with Caco-2 cells, 98 nM; in the assay on B16F10 cells, 77 nM; in the assay on DU145 cells, 93 nM; in the assay on HeLa cells, greater than 100 nM. Further, the IC50 in the assay with HeLa cells (Homo sapiens, 96 h) was 77 nM; at CDK9/CycT1 it was 14.7 nM. Moreover, on CDK9/CycT1, the “Selectivity CDK9 over CDK2: IC50 (CDK2)/IC50 (CDK9)” value (“Selectivity CDK9 over CDK2: IC50” below) is recorded as 47.5.

In the case of `CS(=N)(=O)Cc1cc2nc(c1)Nc1cc(c(F)cn1)-c1ccc(F)cc1OCCCCN2` (racemic) [Example 3, (rac)-16,20-Difluoro-9-[(S-methylsulfonimidoyl)methyl]-3,4,5,6-tetrahydro-2H,12H-11,7-(azeno)-13,17-(metheno)-1,6,12,14-benzoxatriazacyclononadecine], at CDK9/CycT1, the IC50 is 8.3 nM and the “Selectivity CDK9 over CDK2: IC50” value was 5.3.

Take `C[S+]([O-])Cc1cc2nc(c1)OCCCCc1cc(F)ccc1-c1cc(ncc1F)N2` (racemic) [Example 5, (rac)-2,18-Difluoro-9-[(methylsulfinyl)methyl]-13,14,15,16-tetrahydro-6H-7,11-(azeno)-5,1-(metheno)-12,4,6-benzoxadiazacyclooctadecine]: the IC50 in the assay on HeLa-MaTu-ADR cells is 830 nM; with NCI-H460 cells, 1070 nM; in the assay with Caco-2 cells, 761 nM; with DU145 cells it was 836 nM; in the assay on HeLa cells (Homo sapiens, 96 h), 955 nM; at CDK9/CycT1 it was 6.2 nM. The “Selectivity CDK9 over CDK2: IC50” value at CDK9/CycT1 was 44.4.

Regarding `CC(C)(C)OC(=O)N=S(C)(=O)Cc1cc2nc(c1)Nc1cc(c(F)cn1)-c1ccc(F)cc1OCCCN2` (racemic) [Example 7, (rac)-tert-butyl[{[15,19-difluoro-2,3,4,5-tetrahydro-11H-10,6-(azeno)-16,12-(metheno)-1,5,11,13-benzoxatriazacyclooctadecin-8-yl]methyl}(methyl)oxido-λ^6-sulfanylidene]carbamate], the IC50 in the assay with HeLa-MaTu-ADR cells turned out to be 53 nM; in the assay with NCI-H460 cells, 37 nM; in the assay on Caco-2 cells, 33 nM; with B16F10 cells, 44 nM; in the assay on DU145 cells, 30 nM; in the assay with HeLa cells (Homo sapiens, 96 h), 32 nM. The compound also displayed an IC50 at CDK9/CycT1 of 7.5 nM. Moreover, on CDK9/CycT1, the “Selectivity CDK9 over CDK2: IC50” value stood at 3.6.

For the compound `CC(C)(C)OC(=O)N=S(C)(=O)Cc1cc2cc(c1)OCCCNc1cc(F)ccc1-c1nc(ncc1F)N2` (racemic) [Example 13, (rac)-tert-butyl[{[15,19-difluoro-1,2,3,4-tetrahydro-16,12-(azeno)-6,10-(metheno)-5,1,11,13-benzoxatriazacyclooctadecin-8(11H)-yl]methyl}(methyl)oxido-λ^6-sulfanylidene]carbamate], the IC50 in the assay with HeLa-MaTu-ADR cells worked out at 94 nM; in the assay on NCI-H460 cells, 79 nM; in the assay with Caco-2 cells, 68 nM; with DU145 cells, 55 nM; in the assay with HeLa cells (Homo sapiens, 96 h), 78 nM; against CDK9/CycT1 it was 6.5 nM.

`CS(=N)(=O)Cc1cc2cc(c1)OCCCNc1cc(F)ccc1-c1nc(ncc1F)N2` (racemic) [Example 14, rac-15,19-difluoro-8-[(S-methylsulfonimidoyl)methyl]-1,2,3,4-tetrahydro-16,12-(azeno)-6,10-(metheno)-5,1,11,13-benzoxatriazacyclooctadecine] showed an IC50 against CDK9/CycT1 of 3.2 nM.

Turning to `CC(C)(C)OC(=O)N=S(C)(=O)Cc1cc2cc(c1)OCCCCSc1cc(F)ccc1-c1nc(ncc1F)N2` (racemic) [Example 21, (rac)-tert-butyl[{[16,20-difluoro-2,3,4,5-tetrahydro-12H-17,13-(azeno)-11,7-(metheno)-6,1,12,14-benzoxathiadiazacyclononadecin-9-yl]methyl}(methyl)oxido-λ^6-sulfanylidene]carbamate], the IC50 in the assay on HeLa-MaTu-ADR cells was 334 nM; in the assay with NCI-H460 cells, 476 nM; in the assay with Caco-2 cells, 243 nM; in the assay with B16F10 cells, 543 nM; in the assay on DU145 cells it was 327 nM; in the assay with HeLa cells (Homo sapiens, 96 h), 327 nM.

For the compound `CS(=N)(=O)Cc1cc2cc(c1)OCCCCSc1cc(F)ccc1-c1nc(ncc1F)N2` (racemic) [Example 22, (rac)-16,20-difluoro-9-[(S-methylsulfonimidoyl)methyl]-2,3,4,5-tetrahydro-12H-17,13-(azeno)-11,7-(metheno)-6,1,12,14-benzoxathiadiazacyclononadecine], the IC50 in the assay with HeLa-MaTu-ADR cells came to 105 nM; in the assay on NCI-H460 cells, 115 nM; with Caco-2 cells, 74 nM; with B16F10 cells, 110 nM; with DU145 cells, 36 nM; with HeLa cells (Homo sapiens, 96 h), 102 nM.

Take `CN1CCCCOc2cc(F)ccc2-c2nc(ncc2F)Nc2cc(CS(C)(=N)=O)cc1c2` (racemic) [Example 23, (rac)-16,20-difluoro-6-methyl-9-[(S-methylsulfonimidoyl)methyl]-3,4,5,6-tetrahydro-2H,12H-13,17-(azeno)-11,7-(metheno)-1,6,12,14-benzoxatriazacyclononadecine]: at CDK9/CycT1, the IC50 is 5.2 nM and the “Selectivity CDK9 over CDK2: IC50” value is on record as 20.0.

In the case of `CC(C)(C)OC(=O)N=S(C)(=O)Cc1cc2cc(c1)Nc1ncc(F)c(n1)-c1ccc(F)cc1OCCCCN2` (racemic) [Example 24, (rac)-tert-butyl[{[16,20-difluoro-3,4,5,6-tetrahydro-2H,12H-13,17-(azeno)-11,7-(metheno)-1,6,12,14-benzoxatriazacyclononadecin-9-yl]methyl}(methyl)oxido-λ^6-sulfanylidene]carbamate], at CDK9/CycT1, the IC50 was 91 nM and the “Selectivity CDK9 over CDK2: IC50” value was determined as 28.2.
